{"source": "paper PMC12505664", "about": "“Enflicoxib for the long-term management of canine osteoarthritis—External validation of a population pharmacokinetic model in dogs with osteoarthritis” (Frontiers in Veterinary Science, 2025)", "key": {"Beagle dogs": {"test_system": "Beagle dogs", "parameters": "method as in PMID 34082759", "conditions": "cited from earlier work"}, "[1]": {"test": "Plasma levels of enflicoxib and pyrazol metabolite in the 6-month field clinical study (HPLC-MS/MS)", "format": "in vivo, client-owned dogs with OA", "conditions": "for Mean plasma level: oral 8 mg/kg then 4 mg/kg weekly", "protocol": "A prospective, multisite, blinded, randomized, placebo-controlled, parallel-group field study was performed in accordance with Good Clinical Practice standards ([16]). The study aimed to confirm the safety and efficacy of enflicoxib treatment of pain and inflammation associated with naturally occurring canine OA in dogs of any breed and sex treated for 6 months. The protocol was approved by the regulatory authorities of both Portugal and Hungary. Written informed consent was obtained from all dog owners prior to enrolment of their dogs. Dogs remained under the care of their owners at home throughout the study.\nBefore enrolment, all dogs underwent a physical examination, and blood and urine samples were taken. After enrollment, dogs were randomized in a predefined enflicoxib:placebo ratio of 3:1. Enflicoxib was dosed orally at weekly intervals, with an initial dose of 8 mg/kg, followed by once-a-week maintenance doses of 4 mg/kg for a total of 26 weeks. Dogs in the enflicoxib group received Daxocox® tablets (Ecuphar/Animalcare group), while dogs in the placebo group received the same formulation without the active ingredient under the same posology (number of tablets and dosing interval). […] No positive control was included due to difficulties in maintaining blinding with products under different posology during the entire follow-up period.\nTwo blood samples for popPK analysis were collected from all animals enrolled in the study one on day 44(±2 days)/1.5 months, (similar to the last sample taken in the previous clinical studies), after clinical assessment of pain and lameness and prior to treatment administration and another one at the end of the study on day 189/6 months (±2 days), or individual premature study termination day. Day 189 corresponds to the trough concentration after the 27th weekly administration (PK sample taken at the end of the weekly dosing interval). Meanwhile, day 44 corresponds to a PK sample obtained 2 days after the 7th weekly administration. The veterinary practices had the necessary resources and adequate freezing equipment for the long-term storage of plasma samples. Blood samples were collected into potassium-3-ethylenediaminetetraacetic acid (K3EDTA) labeled tubes, which were immediately centrifuged at ~2,500g for 10 min (at +4 °C whenever possible) to obtain plasma. Once received, plasma was transferred into two labeled propylene tubes (aliquots 1 and 2). Each plasma aliquot was stored frozen at a nominal temperature of −20 (±2) °C until shipment to the Laboratory of analysis Welab Barcelona (Parc Científic de Barcelona, C/Baldiri Reixac 4-12, 08028, Barcelona). The maximum storage time for the samples was 376 days at nominally −20 °C/−80 °C. Considering the long-term stability of enflicoxib and its metabolite in dog plasma samples stored at −20 °C, which spans a minimum of 402 days, the stability of the study samples was guaranteed for the entire duration of the study. Samples were analyzed without information on the treatment allocation (laboratory-blinded study).\nEnflicoxib and pyrazol metabolite plasma levels were measured by a previously fully validated high-performance liquid chromatography (HPLC)-method coupled with tandem mass spectrometry (MS/MS) detection as described in Homedes et al. ([4])."}}, "note": "Values joined by “and” are separate entries in the source; they are usually repeats but may differ in a detail not shown here. Identical values can stand only once. Like-named read-outs stand apart in the source and are kept apart here.", "data": [{"smiles": "NS(=O)(=O)c1ccc(N2N=C(C(F)(F)F)CC2c2ccc(F)cc2F)cc1", "note": "(centres unmarked) [Enflicoxib]", "values": [{"measurement": "Tolerability in overdose study", "setting": "Beagle dogs; 3 times the recommended dose (12 mg/kg) for 7 months", "value": "well-tolerated"}, {"measurement": "Tolerability in overdose study", "setting": "Beagle dogs; 5 times the recommended dose (20 mg/kg) for 3 months", "value": "well-tolerated"}, {"measurement": "Mean plasma level", "setting": "[1]; day 44 (2 days after 7th weekly administration), N=75", "value": "491.7 ng/mL and 492 ng/mL"}, {"measurement": "Max plasma level", "setting": "[1]; day 44, N=75", "value": "1,846.5 ng/mL"}, {"measurement": "Min plasma level", "setting": "[1]; day 44, N=75", "value": 5.0, "unit": "ng/mL"}, {"measurement": "Probability (%) concentration < 10 ng/mL", "setting": "[1]; day 44, N=75", "value": 13.3, "unit": "%"}, {"measurement": "Probability (%) concentration < LOQ", "setting": "[1]; day 44, N=75", "value": 9.3, "unit": "%"}, {"measurement": "Probability (%) concentration < 10 ng/mL", "setting": "[1]; day 44, N=75, listed as enflicoxib", "value": 13, "unit": "%"}, {"measurement": "Mean plasma level", "setting": "[1]; day 93 (premature study termination), N=2", "value": 296.8, "unit": "ng/mL"}, {"measurement": "Max plasma level", "setting": "[1]; day 93, N=2", "value": 356.0, "unit": "ng/mL"}, {"measurement": "Min plasma level", "setting": "[1]; day 93, N=2", "value": 237.7, "unit": "ng/mL"}, {"measurement": "Probability (%) concentration < 10 ng/mL", "setting": "[1]; day 93, N=2", "value": 0.0, "unit": "%"}, {"measurement": "Probability (%) concentration < LOQ", "setting": "[1]; day 93, N=2", "value": 0.0, "unit": "%"}, {"measurement": "Mean plasma level", "setting": "[1]; day 189 (trough after 27th weekly administration), N=65", "value": 262.5, "unit": "ng/mL"}, {"measurement": "Mean plasma level", "setting": "[1]; day 189 (trough after 27th weekly administration), N=65, listed as enflicoxib", "value": 263, "unit": "ng/mL"}, {"measurement": "Max plasma level", "setting": "[1]; day 189, N=65", "value": "1,846.3 ng/mL"}, {"measurement": "Min plasma level", "setting": "[1]; day 189, N=65", "value": 5.0, "unit": "ng/mL"}, {"measurement": "Probability (%) concentration < 10 ng/mL", "setting": "[1]; day 189, N=65", "value": 27.7, "unit": "%"}, {"measurement": "Probability (%) concentration < LOQ", "setting": "[1]; day 189, N=65", "value": 27.7, "unit": "%"}, {"measurement": "Probability (%) concentration < 10 ng/mL", "setting": "[1]; day 189, N=65, listed as enflicoxib", "value": 28, "unit": "%"}]}]}
